Measured values: article PMC10482975 (Nature Communications, 2023)
Like-named read-outs stand apart in the source and are kept apart here.

Tests used:
M4 mAChR [1] = molecular target: T1, M4 mAChR (Homo sapiens, UniProt P08173); assay: biochemical; conditions: read-out: [3H]-NMS binding remaining (0 min = 100), MEAN, M4 mAChR; for remaining activity at 0.1 µM: 0.1 μM Xano alone; for remaining activity at 1 µM: 1 μM Xano alone; for remaining activity at 10 µM: 10 μM Xano alone
T1 sequence (P08173 1-479): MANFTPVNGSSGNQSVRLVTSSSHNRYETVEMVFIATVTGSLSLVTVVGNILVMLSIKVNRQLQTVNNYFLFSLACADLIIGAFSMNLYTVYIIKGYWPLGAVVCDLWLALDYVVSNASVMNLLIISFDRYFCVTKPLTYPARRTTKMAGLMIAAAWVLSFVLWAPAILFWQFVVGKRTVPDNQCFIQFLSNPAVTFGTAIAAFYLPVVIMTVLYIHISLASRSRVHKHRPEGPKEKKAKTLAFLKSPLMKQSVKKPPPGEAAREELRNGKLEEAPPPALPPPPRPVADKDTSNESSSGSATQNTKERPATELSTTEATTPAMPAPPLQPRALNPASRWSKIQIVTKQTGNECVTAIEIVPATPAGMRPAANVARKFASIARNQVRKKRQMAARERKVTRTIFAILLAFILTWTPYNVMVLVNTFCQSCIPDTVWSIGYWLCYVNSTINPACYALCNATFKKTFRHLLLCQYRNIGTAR

M4 mAChR [2] = molecular target: T1, M4 mAChR
[3] = tested on: M4 mAChR knockout (KO) mice / M1 mAChR KO mice; conditions: cited from earlier work

Which results are given for `CCCCCCOc1nsnc1C1=CCCN(C)C1` [xanomeline]?
remaining activity at 0.1 µM (M4 mAChR [1]; 0.5 h, 30 min): 90.3%; remaining activity at 1 µM (M4 mAChR [1]; 0.5 h, 30 min): 87.3%; remaining activity at 100 µM (M4 mAChR [1]; 0.5 h, 10 μM Atropine + 100 μM Xanomeline, 30 min): 85.1%; remaining activity at 10 µM (M4 mAChR [1]; 0.5 h, 30 min): 77.6%; remaining activity at 100 µM (M4 mAChR [1]; 0.5 h, 100 μM Xano alone, 30 min): 85.7%; remaining activity at 0.1 µM (M4 mAChR [1]; 1 h, 60 min): 94.4%; remaining activity at 1 µM (M4 mAChR [1]; 1 h, 60 min): 76.8%; remaining activity at 100 µM (M4 mAChR [1]; 1 h, 10 μM Atropine + 100 μM Xanomeline, 60 min): 69.6%; remaining activity at 10 µM (M4 mAChR [1]; 1 h, 60 min): 61%; remaining activity at 100 µM (M4 mAChR [1]; 1 h, 100 μM Xano alone, 60 min): 73.5%; remaining activity at 0.1 µM (M4 mAChR [1]; 1.5 h, 90 min): 98.4%; remaining activity at 1 µM (M4 mAChR [1]; 1.5 h, 90 min): 74.4%; remaining activity at 100 µM (M4 mAChR [1]; 1.5 h, 10 μM Atropine + 100 μM Xanomeline, 90 min): 64.1%; remaining activity at 10 µM (M4 mAChR [1]; 1.5 h, 90 min): 50.9%; remaining activity at 100 µM (M4 mAChR [1]; 1.5 h, 100 μM Xano alone, 90 min): 62.6%; remaining activity at 0.1 µM (M4 mAChR [1]; 2 h, 120 min): 94.7%; remaining activity at 1 µM (M4 mAChR [1]; 2 h, 120 min): 64.9%; remaining activity at 100 µM (M4 mAChR [1]; 2 h, 10 μM Atropine + 100 μM Xanomeline, 120 min): 52.9%; remaining activity at 100 µM (M4 mAChR [1]; 2 h, 100 μM Xano alone, 120 min): 61.2%; remaining activity at 0.1 µM (M4 mAChR [1]; 3 h, 180 min): 92.1%; remaining activity at 1 µM (M4 mAChR [1]; 3 h, 180 min): 60.5%; remaining activity at 10 µM (M4 mAChR [1]; 3 h, 180 min): 32.7%; remaining activity at 100 µM (M4 mAChR [1]; 3 h, 100 μM Xano alone, 180 min): 46.6%; remaining activity at 0.1 µM (M4 mAChR [1]; 5 h, 300 min): 89.8%; remaining activity at 1 µM (M4 mAChR [1]; 5 h, 300 min): 57.5%; remaining activity at 100 µM (M4 mAChR [1]; 5 h, 10 μM Atropine + 100 μM Xanomeline, 300 min): 26.7%; remaining activity at 10 µM (M4 mAChR [1]; 5 h, 300 min): 17.9%; remaining activity at 100 µM (M4 mAChR [1]; 5 h, 100 μM Xano alone, 300 min): 34.6%; rebinding of [3H]-NMS (in words) (M4 mAChR [2]; 10 µM xanomeline alone): prevented the rebinding; [3H]-NMS dissociation (in words) (M4 mAChR [2]; 100 µM xanomeline alone): slowed to the same extent; antipsychotic efficacy ([3]; M1 mAChR KO mice): partially reduced; antipsychotic efficacy ([3]; M4 mAChR knockout (KO) mice): completely abolished
